# Data: US20230312587A1, “PTERIDINONE COMPOUNDS AND USES THEREOF” (Vertex Pharmaceutical Incorporated, priority 2018, published 2023)
# Like-named read-outs stand apart in the source and are kept apart here.
# Test system: β-catenin-TCF-mediated reporter transcription activity in Colo 205 cells
# Test: Colo 205 reporter assay (TCF/LEF luciferase)
# Type: cell-based
# Conditions: Colo 205 TCF/LEF luciferase reporter, read-out: TCF reporter Colo205 IC50
# Summary of the method: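 Luciferase signal from a TCF/LEF-driven reporter, stably integrated in Colo 205 colon cancer cells, was measured 5 h after compound addition.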
# [1] = Homo sapiens, COLO 205, 5 h, five hours after addition of compound
# [2] = Homo sapiens, COLO 205, 5 h, R-isomer at C2 (corresponding to C2 S-isomer), 5 h
Molecule,IC50 [1],other results
"C=C(C)c1ccc(Cn2cc(CNc3nc(C)c4c(n3)N(C)[C@@H](C(C)C)C(=O)N4)cn2)cn1 [Compound 480, (S)-7-isopropyl-4,8-dimethyl-2-(((1-((6-(prop-1-en-2-yl)pyridin-3-yl)methyl)-1H-pyrazol-4-yl)methyl)amino)-7,8-dihydropteridin-6(5H)-one]",< 300 nM,–
"Cc1nc(NCc2ccc(OCc3ccc(F)cc3)cn2)nc2c1NC(=O)[C@H](C)N2C [Compound 70, (S)-2-(((5-((4-fluorobenzyl)oxy)pyridin-2-yl)methyl)amino)-4,7,8-trimethyl-7,8-dihydropteridin-6(5H)-one]",300 to 1000 nM,–
"Cc1cnc(C(F)(F)F)nc1-n1cc(CNc2nc(C)c3c(n2)N(C)[C@@H](C)C(=O)N3)cn1 [Compound 161, (7S)-4,7,8-trimethyl-2-(((1-(5-methyl-2-(trifluoromethyl)pyrimidin-4-yl)-1H-pyrazol-4-yl)methyl)amino)-7,8-dihydropteridin-6(5H)-one]",300 to 1000 nM,–
"Cc1nc(NC2CN(C(=O)Nc3cc(F)c(F)c(F)c3)C2)nc2c1NC(=O)[C@H](C(C)C)N2C [Compound 564, (7S)-3-((7-isopropyl-4,8-dimethyl-6-oxo-5,6,7,8-tetrahydropteridin-2-yl)amino)-N-(3,4,5-trifluorophenyl)azetidine-1-carboxamide]",1000 to 5000 nM,–
"COC1(C2C(=O)Nc3c(C)nc(N[C@H]4C[C@@H](Nc5cnc(C(F)(F)F)cn5)C4)nc3N2C)CCC1 (relative stereo) [Compound 672, 7-(1-methoxycyclobutyl)-4,8-dimethyl-2-((cis-3-((5-(trifluoromethyl)pyrazin-2-yl)amino)cyclobutyl)amino)-7,8-dihydropteridin-6(5H)-one]",< 300 nM,–
"CC[C@H]1C(=O)Nc2c(C)nc(N[C@H]3C[C@H](N(C)c4cnc(C(F)(F)F)cn4)C3)nc2N1C [Compound 682, (S)-7-ethyl-4,8-dimethyl-2-((trans-3-(methyl(5-(trifluoromethyl)pyrazin-2-yl)amino)cyclobutyl)amino)-7,8-dihydropteridin-6(5H)-one]",< 300 nM,–
"Cc1nc(NCc2cnn(C3CCc4ccc(F)cc43)c2)nc2c1NC(=O)[C@H](C)N2C (stereo partly drawn) [Compound 117, (7S)-2-(((1-(6-fluoro-2,3-dihydro-1H-inden-1-yl)-1H-pyrazol-4-yl)methyl)amino)-4,7,8-trimethyl-7,8-dihydropteridin-6(5H)-one]",< 300 nM,–
"Cc1nc(NCc2cnn(Cc3ccc(C(F)(F)F)nc3)c2)nc2c1NC(=O)[C@H](CCO)N2 [Compound 439, (S)-7-(2-hydroxyethyl)-4-methyl-2-(((1-((6-(trifluoromethyl)pyridin-3-yl)methyl)-1H-pyrazol-4-yl)methyl)amino)-7,8-dihydropteridin-6(5H)-one]",≥ 5000 nM,–
"Cc1nc(NCc2cnn(Cc3cncc(F)c3)c2)nc2c1NC(=O)[C@H](C)N2C [Compound 208, (7S)-2-(((1-((5-fluoropyridin-3-yl)methyl)-1H-pyrazol-4-yl)methyl)amino)-4,7,8-trimethyl-7,8-dihydropteridin-6(5H)-one]",< 300 nM,–
"C[C@H]1C(=O)Nc2cnc(N[C@H]3C[C@H](OCc4ccc(F)c(F)c4)C3)nc2N1C [Compound 265, (7S)-2-((trans-3-((3,4-difluorobenzyl)oxy)cyclobutyl)amino)-7,8-dimethyl-7,8-dihydropteridin-6(5H)-one]",300 to 1000 nM,–
"Cc1nc(NC2CN(C(=O)Cc3ccc(F)cc3F)C2)nc2c1NC(=O)[C@H](C(C)C)N2C [Compound 616, (S)-2-((1-(2-(2,4-difluorophenyl)acetyl)azetidin-3-yl)amino)-7-isopropyl-4,8-dimethyl-7,8-dihydropteridin-6(5H)-one]",300 to 1000 nM,–
"Cc1nc(NCc2ccnc(N3CCCCC3)c2)nc2c1NC(=O)[C@H](C)N2C [Compound 60, (S)-4,7,8-trimethyl-2-(((2-(piperidin-1-yl)pyridin-4-yl)methyl)amino)-7,8-dihydropteridin-6(5H)-one]",≥ 5000 nM,–
"(S)-7-((S)-1-(tert-butoxy)ethyl)-4,8-dimethyl-2-(((1-(3,4,5-trifluorobenzyl)-1H-pyrazol-4-yl)methyl)amino)-7,8-dihydropteridin-6(5H)-one [Compound 747]",–,IC50 (five hours after addition of compound): 300 to 1000 nM
"Cc1nc(NCc2cnn(Cc3ccnc(O)c3)c2)nc2c1NC(=O)[C@H](C)N2C [Compound 202, (7S)-2-(((1-((2-hydroxypyridin-4-yl)methyl)-1H-pyrazol-4-yl)methyl)amino)-4,7,8-trimethyl-7,8-dihydropteridin-6(5H)-one]",≥ 5000 nM,–
"Cc1nc(N[C@H]2C[C@@H](Cn3cnc(C(F)(F)F)c3)C2)nc2c1NC(=O)[C@H](C(C)C)N2C [Compound 680, (S)-7-isopropyl-4,8-dimethyl-2-((cis-3-((4-(trifluoromethyl)-1H-imidazol-1-yl)methyl)cyclobutyl)amino)-7,8-dihydropteridin-6(5H)-one]",300 to 1000 nM,–
CCN1C(=O)[C@@H](C)N(CC)c2nc(NCc3cnn(Cc4cc(F)c(F)c(F)c4)c3)ncc21 [Compound I-1349],–,IC50 [2]: < 300 nM
"Cc1nc(NC2CN(C(=O)c3cn(C)nc3C(F)(F)F)C2)nc2c1NC(=O)[C@H](C(C)C)N2C [Compound 609, (S)-7-isopropyl-4,8-dimethyl-2-((1-(1-methyl-3-(trifluoromethyl)-1H-pyrazole-4-carbonyl)azetidin-3-yl)amino)-7,8-dihydropteridin-6(5H)-one]",1000 to 5000 nM,–
"Cc1nc(NCc2ccc(Nc3cnn(CC(F)(F)F)c3)nc2)nc2c1NC(=O)[C@H](C)N2C [Compound 126, (7S)-4,7,8-trimethyl-2-(((6-((1-(2,2,2-trifluoroethyl)-1H-pyrazol-4-yl)amino)pyridin-3-yl)methyl)amino)-7,8-dihydropteridin-6(5H)-one]",1000 to 5000 nM,–
"Cc1nc(N[C@H]2C[C@@H](N(C)c3cnc(C(F)(F)F)cn3)C2)nc2c1NC(=O)[C@H](C(C)C)N2C [Compound 652, (S)-7-isopropyl-4,8-dimethyl-2-((cis-3-(methyl(5-(trifluoromethyl)pyrazin-2-yl)amino)cyclobutyl)amino)-7,8-dihydropteridin-6(5H)-one]",300 to 1000 nM,–
"CO[C@H](C)[C@H]1C(=O)Nc2c(C)nc(N[C@H]3C[C@@H](CNc4cnc(C(F)(F)F)cn4)C3)nc2N1C [Compound 712, (S)-7-((R)—1-methoxyethyl)-4,8-dimethyl-2-((cis-3-(((5-(trifluoromethyl)pyrazin-2-yl)amino)methyl)cyclobutyl)amino)-7,8-dihydropteridin-6(5H)-one]",< 300 nM,–
"Cc1nc(N[C@H]2C[C@@H](COc3cnc(C#N)c(F)c3)C2)nc2c1NC(=O)[C@H](C(C)C)N2C [Compound 694, 3-fluoro-5-((cis-3-(((S)-7-isopropyl-4,8-dimethyl-6-oxo-5,6,7,8-tetrahydropteridin-2-yl)amino)cyclobutyl)methoxy)picolinonitrile]",< 300 nM,–
"CO[C@H](C)[C@H]1C(=O)Nc2c(C)nc(NCc3cnn(Cc4cc(F)c(F)c(F)c4)c3)nc2N1C [Compound 659, (S)-7-((R)-1-methoxyethyl)-4,8-dimethyl-2-(((1-(3,4,5-trifluorobenzyl)-1H-pyrazol-4-yl)methyl)amino)-7,8-dihydropteridin-6(5H)-one]",< 300 nM,–
"Cc1nc(N[C@@H]2CC[C@H](Nc3cnc(C(F)(F)F)cn3)C2)nc2c1NC(=O)[C@H](C(C)C)N2C [Compound 735, (S)-7-isopropyl-4,8-dimethyl-2-(((1R,3S)-3-((5-(trifluoromethyl)pyrazin-2-yl)amino)cyclopentyl)amino)-7,8-dihydropteridin-6(5H)-one]",< 300 nM,–
"Cc1nc(N[C@H]2C[C@@H](Sc3ccc(OC(F)(F)F)cc3)C2)nc2c1N(C)C(=O)[C@H](C)N2C [Compound 348, (7S)-4,5,7,8-tetramethyl-2-((cis-3-((4-(trifluoromethoxy)phenyl)thio)cyclobutyl)amino)-7,8-dihydropteridin-6(5H)-one]",1000 to 5000 nM,–
"COc1nc(C(F)(F)F)ccc1Cn1cc(CNc2nc(C)c3c(n2)N(C)[C@@H](C)C(=O)N3)cn1 [Compound 218, (7S)-2-(((1-((2-methoxy-6-(trifluoromethyl)pyridin-3-yl)methyl)-1H-pyrazol-4-yl)methyl)amino)-4,7,8-trimethyl-7,8-dihydropteridin-6(5H)-one]",< 300 nM,–
"COc1ncc(Cn2cc(CNc3nc(C)c4c(n3)N(C)[C@@H](C)C(=O)N4)cn2)cc1C(F)(F)F [Compound 215, (7S)-2-(((1-((6-methoxy-5-(trifluoromethyl)pyridin-3-yl)methyl)-1H-pyrazol-4-yl)methyl)amino)-4,7,8-trimethyl-7,8-dihydropteridin-6(5H)-one]",< 300 nM,–
"Cc1nc(NCc2cnn([C@@H](C)c3ccc(F)cc3)c2)nc2c1NC(=O)[C@H](C)N2C [Compound 71, (7S)-2-(((1-((S)-1-(4-fluorophenyl)ethyl)-1H-pyrazol-4-yl)methyl)amino)-4,7,8-trimethyl-7,8-dihydropteridin-6(5H)-one]",300 to 1000 nM,–
"Cc1nc(NCc2cnn(Cc3ccnc(N(C)C)c3)c2)nc2c1NC(=O)[C@H](C(C)C)N2C [Compound 448, (S)-2-(((1-((2-(dimethylamino)pyridin-4-yl)methyl)-1H-pyrazol-4-yl)methyl)amino)-7-isopropyl-4,8-dimethyl-7,8-dihydropteridin-6(5H)-one]",< 300 nM,–
"Cc1nc(NCc2cnn(CC3CC(F)(F)C3)c2)nc2c1NC(=O)[C@H](C(C)C)N2C [Compound 727, (S)-2-(((1-((3,3-difluorocyclobutyl)methyl)-1H-pyrazol-4-yl)methyl)amino)-7-isopropyl-4,8-dimethyl-7,8-dihydropteridin-6(5H)-one]",< 300 nM,–
CC(=O)N(Cc1cnn(Cc2ccc(C(F)(F)F)nc2)c1)c1nc(C)c2c(n1)N(C)[C@H](C)C(=O)N2 [Compound I-1640],–,IC50 [2]: ≥ 5000 nM
